In PubChem BioAssay AID248 (DTP/NCI, 2004):
Values joined by “and” are separate entries in the source; they are usually repeats but may differ in a detail not shown here. Identical values can stand only once. Toxic doses and inconclusive results are not listed. Rule as the data show it: active = T/C of 150% or more; inactive = T/C below 125%. Peptide text beside a SMILES is read from it.

Test system: L1210 leukemia ip in BDF1 mice, survival T/C
Assay: NCI In Vivo Anticancer Drug Screen. Data for tumor model L1210 Leukemia (intraperitoneal) in B6D2F1 (BDF1) mice
Conditions: endpoint: mean survival time, higher = longer survival
Outline: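 Read-out is survival time, reported as the treated-group measurement over the vehicle-control measurement.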

[1] = dose: 100.0 mg/kg/injection, schedule: Q04DX003 (ip), vehicle: Klucel (hydroxypropylcellulose) (HPC)
[2] = dose: 200.0 mg/kg/injection, schedule: Q04DX003 (ip), vehicle: Klucel (hydroxypropylcellulose) (HPC)
[3] = dose: 400.0 mg/kg/injection, schedule: Q04DX003 (ip), vehicle: Klucel (hydroxypropylcellulose) (HPC)
[4] = dose: 50.0 mg/kg/injection, schedule: Q01DX001 (ip), vehicle: carboxymethylcellulose (CMC)
[5] = dose: 100.0 mg/kg/injection, schedule: Q01DX001 (ip), vehicle: carboxymethylcellulose (CMC)
[6] = dose: 200.0 mg/kg/injection, schedule: Q01DX001 (ip), vehicle: carboxymethylcellulose (CMC)
[7] = dose: 400.0 mg/kg/injection, schedule: Q01DX001 (ip), vehicle: carboxymethylcellulose (CMC)
[8] = dose: 100.0 mg/kg/injection, schedule: Q01DX001 (ip), vehicle: Klucel (hydroxypropylcellulose) (HPC)
[9] = dose: 200.0 mg/kg/injection, schedule: Q01DX001 (ip), vehicle: Klucel (hydroxypropylcellulose) (HPC)
[10] = dose: 400.0 mg/kg/injection, schedule: Q01DX001 (ip), vehicle: Klucel (hydroxypropylcellulose) (HPC)
[11] = dose: 100.0 mg/kg/injection, schedule: Q01DX001 (ip), vehicle: saline
[12] = dose: 200.0 mg/kg/injection, schedule: Q01DX001 (ip), vehicle: saline
[13] = dose: 400.0 mg/kg/injection, schedule: Q01DX001 (ip), vehicle: saline
[14] = dose: 100.0 mg/kg/injection, schedule: Q01DX009 (ip), vehicle: Klucel (hydroxypropylcellulose) (HPC)
[15] = dose: 200.0 mg/kg/injection, schedule: Q01DX009 (ip), vehicle: Klucel (hydroxypropylcellulose) (HPC)
[16] = dose: 400.0 mg/kg/injection, schedule: Q01DX009 (ip), vehicle: Klucel (hydroxypropylcellulose) (HPC)
[17] = dose: 25.0 mg/kg/injection, schedule: Q01DX009 (ip), vehicle: Klucel (hydroxypropylcellulose) (HPC)
[18] = dose: 50.0 mg/kg/injection, schedule: Q01DX009 (ip), vehicle: Klucel (hydroxypropylcellulose) (HPC)
[19] = dose: 100.0 mg/kg/injection, schedule: Q04DX003 (ip), vehicle: saline with Tween-80
[20] = dose: 200.0 mg/kg/injection, schedule: Q04DX003 (ip), vehicle: saline with Tween-80
[21] = dose: 400.0 mg/kg/injection, schedule: Q04DX003 (ip), vehicle: saline with Tween-80

Measured: T/C

CCC(CC)(CO)CO
inactive: dose: 25.0 mg/kg/injection, schedule: Q01DX009 (ip), vehicle: saline 96 % of control | dose: 25.0 mg/kg/injection, schedule: Q04DX003 (ip), vehicle: saline 96 % of control | dose: 50.0 mg/kg/injection, schedule: Q01DX009 (ip), vehicle: saline 96 % of control | dose: 50.0 mg/kg/injection, schedule: Q04DX003 (ip), vehicle: saline 102 % of control | dose: 100.0 mg/kg/injection, schedule: Q01DX009 (ip), vehicle: saline 92 % of control | [1] 103 % of control | dose: 100.0 mg/kg/injection, schedule: Q04DX003 (ip), vehicle: saline 91 % of control | dose: 200.0 mg/kg/injection, schedule: Q01DX009 (ip), vehicle: saline 96 % of control | [2] 94 % of control | dose: 200.0 mg/kg/injection, schedule: Q04DX003 (ip), vehicle: saline 91 % of control | dose: 400.0 mg/kg/injection, schedule: Q01DX009 (ip), vehicle: saline 96 % of control | [3] 97 % of control | dose: 400.0 mg/kg/injection, schedule: Q04DX003 (ip), vehicle: saline 107 % of control

Fc1c(F)c(F)c(/C=N/Nc2nnc(N/N=C/c3c(F)c(F)c(F)c(F)c3F)c3ccccc23)c(F)c1F
inactive: [4] 93 % of control | [5] 95 % of control | [6] 98 % of control | [7] 95 % of control

COc1ccc(-c2c(-c3ccccc3)c(=O)oc3ccc4ccccc4c23)cc1
inactive: [1] 97 % of control | [2] 100 % of control | [3] 97 % of control

CCN(N=O)C(=O)NC1C(O)OC(CO)C(O)C1O (centres undefined)
inactive: dose: 25.0 mg/kg/injection, schedule: Q01DX009 (ip), vehicle: other 100 % of control | dose: 50.0 mg/kg/injection, schedule: Q01DX009 (ip), vehicle: other 118 % of control | dose: 100.0 mg/kg/injection, schedule: Q01DX009 (ip), vehicle: other 113 % of control | dose: 200.0 mg/kg/injection, schedule: Q01DX009 (ip), vehicle: other 112 % of control

N=C(N)c1cccc(OCc2ccccc2)c1
inactive: [8] 90 % of control | [9] 94 % of control | [10] 94 % of control

CC(C)C(NC(=O)C(CCC(=O)O)NC(=O)C(N)Cc1ccc(O)cc1)C(=O)NCC(=O)NC(Cc1ccc(O)cc1)C(=O)NC(CCC(=O)O)C(=O)NC(C(=O)NCC(=O)NCC(=O)O)C(C)C (centres undefined) (H-YEVGYEVGG-OH; configuration not given here)
inactive: [4] 91 % of control | [5] 96 % of control | [6] 91 % of control

O=C(COc1ccc([N+](=O)[O-])cc1)Nc1ccc(S(=O)(=O)F)cc1
inactive: [11] 103 % of control | [12] 107 % of control | [13] 103 % of control

CC(C)c1cc(C(C)C)c(S(=O)(=O)C2CC2c2ccccc2)c(C(C)C)c1 (centres undefined)
inactive: [11] 112 % of control | [12] 93 % of control | [13] 91 % of control

Cc1nc(N)nc(Cl)c1CCCc1ccccc1
inactive: [8] 97 % of control | [9] 102 % of control | [10] 107 % of control

CC(=O)CC(C)(C)C
inactive: [11] 102 % of control | [12] 98 % of control | [13] 91 % of control

O=C(Nc1ccc([N+](=O)[O-])cc1Cl)Oc1ccc(OCc2ccccc2)cc1
inactive: [1] 91 % of control | [2] 91 % of control | [3] 96 % of control

CC(C)(c1cc(Br)c(O)c(Br)c1)c1cc(Br)c(O)c(Br)c1
inactive: [14] 93 % of control | [1] 100 % of control | [15] 94 % of control | [2] 92 % of control | [16] 91 % of control | [3] 103 % of control

CCOC(=O)/C(C#N)=C\c1ccc(N(C)CCC#N)cc1
inactive: [14] 100 % of control | [15] 96 % of control | [16] 94 % of control

OCc1ccccc1CO
inactive: [5] 95 % of control | [6] 95 % of control | [7] 98 % of control

CC(C)OC(=O)COc1ccc(Cl)cc1
inactive: dose: 100.0 mg/kg/injection, schedule: Q01DX009 (ip), vehicle: carboxymethylcellulose (CMC) 101 % of control and 102 % of control | dose: 100.0 mg/kg/injection, schedule: Q04DX002 (ip), vehicle: carboxymethylcellulose (CMC) 101 % of control and 105 % of control | dose: 100.0 mg/kg/injection, schedule: Q04DX003 (ip), vehicle: carboxymethylcellulose (CMC) 102 % of control | dose: 200.0 mg/kg/injection, schedule: Q01DX009 (ip), vehicle: carboxymethylcellulose (CMC) 101 % of control and 91 % of control | dose: 200.0 mg/kg/injection, schedule: Q04DX002 (ip), vehicle: carboxymethylcellulose (CMC) 102 % of control and 106 % of control | dose: 200.0 mg/kg/injection, schedule: Q04DX003 (ip), vehicle: carboxymethylcellulose (CMC) 104 % of control | dose: 400.0 mg/kg/injection, schedule: Q01DX009 (ip), vehicle: carboxymethylcellulose (CMC) 108 % of control and 88 % of control | dose: 400.0 mg/kg/injection, schedule: Q04DX002 (ip), vehicle: carboxymethylcellulose (CMC) 98 % of control and 108 % of control | dose: 400.0 mg/kg/injection, schedule: Q04DX003 (ip), vehicle: carboxymethylcellulose (CMC) 101 % of control

COc1ccc(N=C=Nc2ccc(OC)cc2)cc1
inactive: dose: 12.0 mg/kg/injection, schedule: Q01DX009 (ip), vehicle: Klucel (hydroxypropylcellulose) (HPC) 101 % of control | [17] 108 % of control | dose: 25.0 mg/kg/injection, schedule: Q04DX003 (ip), vehicle: Klucel (hydroxypropylcellulose) (HPC) 96 % of control | [18] 90 % of control | dose: 50.0 mg/kg/injection, schedule: Q04DX003 (ip), vehicle: Klucel (hydroxypropylcellulose) (HPC) 93 % of control | [1] 98 % of control

CCNc1ncnc2c1cnn2C
inactive: [11] 95 % of control | [12] 103 % of control | [13] 114 % of control

O=S(Sc1ccccc1)c1ccccc1 (centres undefined)
inactive: dose: 0.94 mg/kg/injection, schedule: Q01DX Z (ip), vehicle: saline 104 % of control | dose: 3.75 mg/kg/injection, schedule: Q01DX Z (ip), vehicle: saline 96 % of control

O=C(O)/C=C\C(=O)Nc1ccccn1
inactive: [11] 92 % of control | [12] 100 % of control | [13] 103 % of control

N=C(OC1CCCCC1)N1CCCC1
inactive: dose: 22.0 mg/kg/injection, schedule: Q01DX Z (ip), vehicle: saline 98 % of control | dose: 33.0 mg/kg/injection, schedule: Q01DX Z (ip), vehicle: saline 98 % of control | dose: 50.0 mg/kg/injection, schedule: Q01DX Z (ip), vehicle: saline 98 % of control

OC1(C2C=CC=C2)c2ccccc2C=Cc2ccccc21
inactive: dose: 9.38 mg/kg/injection, schedule: Q01DX001 (ip), vehicle: other 100 % of control | dose: 18.75 mg/kg/injection, schedule: Q01DX001 (ip), vehicle: other 100 % of control | dose: 37.5 mg/kg/injection, schedule: Q01DX001 (ip), vehicle: other 100 % of control

OCCOc1nc(OCCO)c(Cl)c(C(Cl)(Cl)Cl)n1
inactive: dose: 100.0 mg/kg/injection, schedule: Q01DX009 (ip), vehicle: saline with Tween-80 98 % of control | dose: 200.0 mg/kg/injection, schedule: Q01DX009 (ip), vehicle: saline with Tween-80 93 % of control | dose: 400.0 mg/kg/injection, schedule: Q01DX009 (ip), vehicle: saline with Tween-80 86 % of control

O=C1OC(c2ccc(Cl)cc2)=N/C1=C\c1ccccc1
inactive: [19] 100 % of control | [20] 90 % of control | [21] 91 % of control

O=C1c2cccc3c([N+](=O)[O-])ccc(c23)C(=O)N1CCCN1CCOCC1
inactive: [17] 104 % of control | [18] 98 % of control | [14] 93 % of control and 87 % of control

CCOC(=O)/C=C\c1c(OC)nc2ccccn2c1=O (tested in a mixture with another compound)
inactive: [14] 101 % of control | [1] 94 % of control | [15] 100 % of control | [2] 92 % of control | [16] 101 % of control | [3] 95 % of control

c1ccc(C2=NNC(c3ccccn3)=NN2)nc1
inactive: [19] 96 % of control | [20] 96 % of control | [21] 102 % of control
